“Also recorded” adds a separate entry of the source.
Legend:
Lgr5-GFP^hi ISCs = assay: Organoid formation by sorted Lgr5-GFP^hi ISCs with or without Paneth cells; type: cell-based, mouse; settings: ISCs from GW501516-treated mice, no Paneth cells, vs vehicle; listed as GW501515
Procedure: (§1) Isolated ISCs or progenitor cells were centrifuged for 5 minutes at 250 g, re-suspended in the appropriate volume of crypt culture medium (500-1,000 cells μl^−1), then seeded onto 25-30 μl Matrigel™ (Corning 356231 growth factor reduced) containing 1 μM jagged (Ana-Spec) in a flat bottom 48-well plate (Corning 3548). Alternatively, ISCs and Paneth cells were mixed after sorting in a 1:1 ratio, centrifuged, and then seeded onto Matrigel™. The Matrigel™ and cells were allowed to solidify before adding 300 μl of crypt culture medium. The crypt media was changed every second or third day. Organoid bodies were quantified on days 3, 7 and 10 of culture, unless otherwise specified. With respect to the study results presented in FIGS. 14-16, organoid bodies were quantified on day 3-4. In secondary experiments, individual primary organoids were mechanically dissociated and re-plated, or organoids were dissociated for 10 minutes in TrypLE Express at 32° C., re-suspended with SMEM (Life Technologies), centrifuged and re-suspended in cold SMEM with viability dye 7-AAD. Live cells were sorted and seeded onto Matrigel™ as previously described.

PPAR-δ target genes = assay: PPAR-δ target gene and protein expression in flow sorted ISCs and progenitors (qRT-PCR, immunoblot, RNA-seq); type: in vivo, mouse; settings: GW501516 for 4 weeks, protein level
From the text: Antibodies: rabbit polyclonal anti-PPAR-δ (1:100, Thermo PA1-823A), rabbit polyclonal anti-Cpt1a (1:250, ProteinTech 15184-1-AP), rabbit polyclonal anti-HMGCS2 (1:500, Sigma AV41562), rabbit monoclonal anti-FABP1 (1:1000, Abcam ab129203), rabbit polyclonal anti-γ-tubulin (1:1000, Sigma T5192). Lgr5-GFP^hi ISCs or GFP^low progenitors were sorted directly into sample buffer and boiled for five minutes. Samples were resolved by SDS-PAGE and analyzed by immunoblotting with goat anti-rabbit IgG-HRP secondary antibodies (1:10,000, Santa Cruz Biotechnology sc-2054) and Western Lightning Plus-ECL detection kit (Perkin Elmer, NEL 104001EA).
Cells were sorted into Tri Reagent (Life Technologies) and total RNA was isolated according to the manufacturer's instructions with following modification: the aqueous phase containing total RNA was purified using RNeasy plus kit (Qiagen). RNA was converted to eDNA with cDNA synthesis kit (Bio-Rad). qRT-PCR was performed with SYBR green master mix (Bio-Rad) on Bio-Rad iCycler RT-PCR detection system. Primers used are listed on Table 4 below.
RNA Isolation. […] From the total RNA, poly(A)^+ RNA was selected using Oligo(dT)25-Dynabeads (Life technologies) according to the manufacturer's protocol.

β-catenin target genes = assay: Single cell qPCR of β-catenin target genes; type: in vivo, mouse; settings: ISCs and progenitors from GW501516-treated mice
Procedure: For one-tube single-cell sequence-specific pre-amplification, individual primer sets of β-catenin target genes (total of 96) were pooled to 0.1 mM final concentration for each primer. Single cells were directly sorted into 96 well plates containing 5 ul RT-PCR master mix (2.5 ul CellsDirect reaction mix, Invitrogen; 0.5 ul primer pool; 0.1 ul RT/Taq enzyme, Invitrogen; 1.9 ul nuclease free water) in each well. Immediately after, plates were placed on PCR machine for pre-amplification. Sequence specific pre-amplification PCR protocol was as following: 1) 60 minutes at 50° C. for cell lyses and sequence specific reverse transcription, 2) 3 minutes at 95° C. for reverse transcriptase inactivation and Taq polymerase activation. Then, cDNA was amplified by 20 cycles of 15 seconds at 95° C. for initial denaturation, […] at 60° C. for annealing and elongation. After pre-amplification, samples were diluted 1:5 prior to high throughput microfluidic real time PCR analysis using Fluidgm platform. […] Threshold crossing (Ct) values were calculated using the BioMark Real-Time PCR Analysis software (Fluidgm). […] Fold-changes were calculated as the difference of median of log2 expression levels for the two cell populations. […]

[1] = tested on: Apc-null Lgr5-GFP^hi ISCs and Lgr5-GFP^low progenitors; assay: In vitro adenomatous organoid formation by Apc-null ISCs and progenitors; type: cell-based, mouse
From the text: To test this possibility, the present inventors generated Apc^loxp/loxp; Lgr5-EGFP-IRES-CreERT2 mice to assess whether pharmacological PPAR-δ activation modifies the tumorigenic capacity of the Lgr5-GFP^low progenitors. Injection with tamoxifen leads to Apc-loss in the Lgr5-GFP^hi ISCs, which in turn generate Apc-null Lgr5-GFP^low progenitors. Four days after tamoxifen administration, we flow sorted Apc-null Lgr5-GFP^hi ISCs and Lgr5-GFP^low progenitors from vehicle and PPAR-δ agonist treated mice to assess the tumor-forming potential of these populations using separate assays (FIG. 7B): first, we examined their ability to give rise to adenomatous organoids in culture; and second, we interrogated the ability of 10,000 freshly sorted stem and progenitor cells to initiate adenomatous lesions in syngeneic recipient colons.
as §1

Lgr5-GFP^low progenitors = assay: Organoid formation by sorted Lgr5-GFP^low progenitors; type: cell-based, mouse; settings: progenitors from GW501516-treated mice, vs vehicle
Procedure: as §1

β-catenin = β-catenin nuclear localization by immunostaining; type: in vivo, mouse; settings: GW501516-treated mice vs vehicle
[2] = tested on: Lgr5-GFP^hi ISCs and Lgr5-GFP^low progenitors; assay: Flow cytometry enumeration of Lgr5-GFP^hi ISCs and Lgr5-GFP^low progenitors in Lgr5-EGFP-IRES-CreERT2 mice; type: in vivo, mouse; settings: GW501516 4 mg/kg daily IP, 2-4 weeks, vs vehicle
From the text: Mice were housed in the Unit for Laboratory Animal Medicine at the Whitehead Institute for Biomedical Research and Koch Institute for Integrative Cancer Research. Lgr5-EGFP-IRES-CreERT2 mice (strain name: B6.129P2-Lgr5^tm1(cre/ERT2)Cle/J, stock number 008875), and Rosa26-lacZ mice (strain name: B6.129S4-Gt(ROSA)26Sor^tm1Sor/J, stock number 003474) were obtained from the Jackson Laboratory. […] Control mice were age-matched and fed normal chow ad libitum. GW501516 (Enzo) was reconstituted in DMSO at 4.5 mg ml^−1 and diluted 1:10 in a solution of 5% PEG400 (Hampton Research), 5% Tween80 (Sigma), 90% H2O for a daily intraperitoneal injection of 4 mg/kg.
As previously reported and briefly summarized here, small intestines were removed, washed with cold PBS−/−, opened laterally and cut into 3-5 mm fragments. Pieces were washed multiple times with cold PBS−/− until clean, washed 2-3 with PBS−/−/EDTA (10 mM), and incubated on ice for 90-120 minutes while mixing at 30-minute intervals. Crypts were then mechanically separated from the connective tissue by shaking, and filtered through a 70-μm mesh into a 50-ml conical tube to remove villous material and tissue fragments. At this point the suspension was mainly composed of crypts. […] For ISC isolation, the crypt suspensions were dissociated to individual cells with TrypLE Express (Invitrogen). Cell labeling consisted of an antibody cocktail comprising CD45-PE (eBioscience, 30-F1 1), CD31-PE (Biolegend, Mecl3.3), Ter119-PE (Biolegend, Ter119), CD24-Pacific Blue (Biolegend, M1/69), CD117-APC/Cy7 (Biolegend, 2BS), and EPCAM-APC (eBioscience, G8.8). ISCs were isolated as Lgr5-EGFP^hiEpcam^+CD24^low/−CD31^−Ter119 CD45^−7-AAD^−. EGFP^low progenitors were isolated as EGFP^lowEpcam^+CD24^low/−CD31^−Ter119^−CD45^−7-AAD^−, and Paneth cells were isolated as CD24^hiSidescatter^hiLgr5-EGFP^−Epcam^+CD31^−Ter119^−CD45^−7-AAD^− with a BD FACS Aria II SORP cell sorter into supplemented crypt culture medium for culture. Dead cells were excluded from the analysis with the viability dye 7-AAD (Life Technologies).

Cc1cc(SCc2sc(-c3ccc(C(F)(F)F)cc3)nc2C)ccc1OCC(=O)O [GW501516, 2-[2-methyl-4-[[4-methyl-2-[4-(trifluoromethyl)phenyl]-1,3-thiazol-5-yl]methylsulfanyl]phenoxy]acetic acid]
Paneth cell-independent organoid-initiating capacity of Lgr5-GFP^hi ISCs (Lgr5-GFP^hi ISCs): sufficient to enhance | PPAR-δ target proteins in ISCs and progenitors (PPAR-δ target genes): strong induction; also recorded: upregulated | transcription of β-catenin target genes (Bmp4, Jag1, Jag2, Edn3) (β-catenin target genes): induction | in vitro adenoma-initiating potential of Apc-null Lgr5-GFP^low progenitors ([1]; GW501516-treated mice, EN media, vehicle 0.04±0.05): 0.18±0.07 | in vitro adenomatous organoid-forming potential of Apc-null Lgr5-GFP^hi ISCs ([1]; GW501516-treated vs vehicle): not altered | increase of in vitro adenomatous organoid forming potential of Apc-null Lgr5-GFP^low progenitors ([1]; GW501516-treated vs vehicle, EN media): four-fold | in vitro adenomatous organoid-forming potential of Apc-null Lgr5-GFP^hi ISCs ([1]; GW501516-treated vs vehicle, listed as PPAR-δ agonist): as clonogenic as those from vehicle controls | organoid-initiating capacity of Lgr5-GFP^low progenitors (Lgr5-GFP^low progenitors): possess the potential to autonomously form organoid bodies; also recorded: conferred organoid-initiating capacity | organoid-initiating capacity of Lgr5-GFP^low progenitors (Lgr5-GFP^low progenitors; listed as GW501515): sufficient to enhance | organoid-initiating capacity of Lgr5-GFP^low progenitors (Lgr5-GFP^low progenitors; listed as PPAR-δ agonist): capable of forming organoids | nuclear β-catenin in stem and progenitor cells of crypts (intestinal sections) (β-catenin): increased nuclear β-catenin localization | nuclear β-catenin localization in flow sorted ISCs and progenitors (β-catenin): increased nuclear β-catenin localization | nuclear β-catenin in stem and progenitor cells of crypts (intestinal sections) (β-catenin; listed as PPAR-δ agonist): greater percentage | nuclear β-catenin localization in flow sorted ISCs and progenitors (β-catenin; listed as PPAR-δ agonist): more nuclear β-catenin accumulation | number of Lgr5-GFP^low progenitors ([2]; 4 mg/kg): not in progenitor cells; also recorded: no effect | number/frequency of Lgr5-GFP^hi ISCs ([2]; 4 mg/kg): augmented; also recorded: selective increase; also recorded: doubled the number | number/frequency of Lgr5-GFP^hi ISCs ([2]; listed as GW501515): sufficient to enhance

From patent publication US10426757B2, “Compositions and methods for promoting intestinal stem cell and/or non-stem progenitor cell function” (Whitehead Institute for Biomedical Research, priority 2014, dated 2019)
